Read-outs that look alike come from different tables or passages of the source.
What was measured:
[1] = tested on: Key Broadleaf Weed and Crop Species; assay: Post-emergent Test II herbicidal activity (Table 5); format: in vivo; conditions: post-emergence, 336 h, post-emergent, 14 days after application; for pest or weed control at 70 g/ha: 70 g ai/ha; for pest or weed control at 140 g/ha: 140 g ai/ha
Method in brief: (§1)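 Visual injury ratings (0 = no injury, 100 = complete kill) were taken 14 d after treatment, relative to untreated plants. Seedlings at the first–second true leaf stage received overhead spray at 187 L/ha; the highest rate was serially diluted to ½×, ¼×, ⅛× and 1/16×.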

[2] = tested on: Key Grass and Sedge Weeds as well as Grass Crops; assay: Post-emergent Test II herbicidal activity (Table 6); format: in vivo; conditions: post-emergence, 336 h; for pest or weed control at 70 g/ha: application rate 70 g ai/ha; for pest or weed control at 140 g/ha: application rate 140 g ai/ha
Method in brief: as §1

[3] = ABUTH: velvetleaf (Abutilon theophrasti), read-out: Visual Growth Reduction (%) 14 Days After Application ABUTH
[4] = AMARE: redroot pigweed (Amaranthus retroflexus), read-out: Visual Growth Reduction (%) 14 Days After Application AMARE
[5] = BRSNN: oilseed-rape, canola (Brassica napus), read-out: Visual Growth Reduction (%) 14 Days After Application BRSNN
[6] = CHEAL: lambsquarters (Chenopodium album), read-out: Visual Growth Reduction (%) 14 Days After Application CHEAL
[7] = EPHHL: wild poinsettia (Euphorbia heterophylla), read-out: Visual Growth Reduction (%) 14 Days After Application EPHHL
[8] = HELAN: sunflower (Helianthus annuus), read-out: Visual Growth Reduction (%) 14 Days After Application HELAN
[9] = VIOTR: wild pansy (Viola tricolor), read-out: Visual Growth Reduction (%) 14 Days After Application VIOTR
[10] = Triticum aestivum, TRZSS (wheat), read-out: Visual Growth Reduction (%) 14 Days After Application, TRZSS
[11] = CYPES: yellow nutsedge (Cyperus esculentus), read-out: Visual Growth Reduction (%) 14 Days After Application, CYPES
[12] = DIGSA: crabgrass (Digitaria sanguinalis), read-out: Visual Growth Reduction (%) 14 Days After Application, DIGSA
[13] = ECHCG: barnyardgrass (Echinochloa crus-galli), read-out: Visual Growth Reduction (%) 14 Days After Application, ECHCG
[14] = ORYSA: rice (Oryza sativa), read-out: Visual Growth Reduction (%) 14 Days After Application, ORYSA
[15] = SETFA: giant foxtail (Setaria faberi), read-out: Visual Growth Reduction (%) 14 Days After Application, SETFA
[16] = SORVU: grain sorghum (Sorghum vulgare), read-out: Visual Growth Reduction (%) 14 Days After Application, SORVU
[17] = ZEAMX: maize, corn (Zea mays), read-out: Visual Growth Reduction (%) 14 Days After Application, ZEAMX

| SMILES | pest or weed control at 70 g/ha [1, 3] [%] | pest or weed control at 140 g/ha [1, 3] [%] | pest or weed control at 70 g/ha [1, 5] [%] | pest or weed control at 140 g/ha [1, 5] [%] | pest or weed control at 70 g/ha [1, 6] [%] | pest or weed control at 140 g/ha [1, 6] [%] | pest or weed control at 70 g/ha [1, 7] [%] | pest or weed control at 140 g/ha [1, 7] [%] | pest or weed control at 70 g/ha [1, 8] [%] | pest or weed control at 140 g/ha [1, 8] [%] | pest or weed control at 70 g/ha [1, 9] [%] | pest or weed control at 140 g/ha [1, 9] [%] | pest or weed control at 70 g/ha [2, 10] [%] | pest or weed control at 140 g/ha [2, 10] [%] | pest or weed control at 70 g/ha [2, 11] [%] | pest or weed control at 140 g/ha [2, 11] [%] | pest or weed control at 70 g/ha [2, 12] [%] | pest or weed control at 140 g/ha [2, 12] [%] | pest or weed control at 70 g/ha [2, 13] [%] | pest or weed control at 140 g/ha [2, 13] [%] | other results |
| --- | --- | --- | --- | --- | --- | --- | --- | --- | --- | --- | --- | --- | --- | --- | --- | --- | --- | --- | --- | --- | --- |
| C#Cc1ccc(-c2cc(N)c(Cl)c(C(=O)OC)n2)cc1 [Compound 126] | 95 to 100 | 95 to 100 | 75 to 84 | 85 to 94 | 95 to 100 | 95 to 100 | 95 to 100 | 95 to 100 | 85 to 94 | 95 to 100 | 0 to 29 | 30 to 44 | 0 to 29 | 0 to 29 | 60 to 74 | 30 to 44 | 75 to 84 | 85 to 94 | 95 to 100 | 95 to 100 | pest or weed control at 70 g/ha [1, 4]: 95 to 100%; pest or weed control at 140 g/ha [1, 4]: 95 to 100%; pest or weed control at 70 g/ha [2, 14]: 0 to 29%; pest or weed control at 140 g/ha [2, 14]: 0 to 29%; pest or weed control at 70 g/ha [2, 15]: 0 to 29%; pest or weed control at 140 g/ha [2, 15]: 75 to 84%; pest or weed control at 70 g/ha [2, 16]: 75 to 84%; pest or weed control at 140 g/ha [2, 16]: 85 to 94%; pest or weed control at 70 g/ha [2, 17]: 0 to 29%; pest or weed control at 140 g/ha [2, 17]: 60 to 74%; melting point: 158.9 to 161.2 °C |
| C=Cc1c(C(=O)O)nc(-c2ccc(C(F)(F)F)c(F)c2)c(F)c1N [Compound 86] | 95 to 100 | 95 to 100 | 75 to 84 | 95 to 100 | 95 to 100 | 95 to 100 | 95 to 100 | 95 to 100 | 95 to 100 | 95 to 100 | 95 to 100 | 95 to 100 | 0 to 29 | 0 to 29 | 95 to 100 | 95 to 100 | 0 to 29 | 0 to 29 | 75 to 84 | 85 to 94 | pest or weed control at 70 g/ha [2, 14]: 30 to 44%; pest or weed control at 140 g/ha [2, 14]: 45 to 59%; pest or weed control at 70 g/ha [2, 15]: 0 to 29%; pest or weed control at 140 g/ha [2, 15]: 0 to 29%; pest or weed control at 70 g/ha [2, 16]: 75 to 84%; pest or weed control at 70 g/ha [2, 17]: 60 to 74%; pest or weed control at 140 g/ha [2, 17]: 60 to 74%; melting point: 120 to 122 °C |
| COC(=O)c1nc(-c2ccc(C#N)c(F)c2)c(C)c(N)c1Cl [Compound 155, Methyl 4-amino-3-chloro-6-(4-cyano-3-fluorophenyl)-5-methylpicolinate] | 0 to 29 | 0 to 29 | 45 to 59 | 60 to 74 | 85 to 94 | 95 to 100 | 0 to 29 | 0 to 29 | 85 to 94 | 85 to 94 | 0 to 29 | 0 to 29 | 0 to 29 | 0 to 29 | 0 to 29 | 0 to 29 | 0 to 29 | 0 to 29 | 0 to 29 | 0 to 29 | pest or weed control at 70 g/ha [1, 4]: 0 to 29%; pest or weed control at 140 g/ha [1, 4]: 0 to 29%; pest or weed control at 70 g/ha [2, 14]: 0 to 29%; pest or weed control at 140 g/ha [2, 14]: 0 to 29%; pest or weed control at 70 g/ha [2, 15]: 0 to 29%; pest or weed control at 140 g/ha [2, 15]: 0 to 29%; pest or weed control at 70 g/ha [2, 16]: 0 to 29%; pest or weed control at 140 g/ha [2, 16]: 0 to 29%; pest or weed control at 70 g/ha [2, 17]: 0 to 29%; pest or weed control at 140 g/ha [2, 17]: 0 to 29%; melting point: 177 to 180 °C |

Reference: patent US9113629B2, “4-amino-6-(4-substituted-phenyl)-picolinates and 6-amino-2-(4-substituted-phenyl)-pyrimidine-4-carboxylates and their use as herbicides” (DOW AGROSCIENCES LLC, priority 2013, dated 2015)
